Measured values published in article PMC3361267 (Journal of Medicinal Chemistry, 2012).
“Also recorded” adds a separate entry of the source. Where two headings read alike, the source gives them in different places. *1 amine or outer side, *2 acyl side, *3 side chain or, on linkers, in order; H or OH if unused. Where a SMILES comes first, the peptide text is derived from it. Bridges are numbered along the chain shown (N, C = ends). [ ]: non-standard residue; d: D form. X1 = O=C([C@@H](N[*:1])c1c([*:3])[nH]c2ccccc12)[*:2]; Leu(4R-OH,5-OH) = C[C@](O)(CO)C[C@H](N)C(=O)O; cisHyp = O=C(O)[C@@H]1C[C@H](O)CN1

How the values were obtained:
OATP1B3 = biological target: T1, OATP1B3 (Homo sapiens, UniProt Q9NPD5); conditions: for classification as OATP1B3 inhibitor/stimulator (single-point): 20 μM
T1 sequence (Q9NPD5 1-702): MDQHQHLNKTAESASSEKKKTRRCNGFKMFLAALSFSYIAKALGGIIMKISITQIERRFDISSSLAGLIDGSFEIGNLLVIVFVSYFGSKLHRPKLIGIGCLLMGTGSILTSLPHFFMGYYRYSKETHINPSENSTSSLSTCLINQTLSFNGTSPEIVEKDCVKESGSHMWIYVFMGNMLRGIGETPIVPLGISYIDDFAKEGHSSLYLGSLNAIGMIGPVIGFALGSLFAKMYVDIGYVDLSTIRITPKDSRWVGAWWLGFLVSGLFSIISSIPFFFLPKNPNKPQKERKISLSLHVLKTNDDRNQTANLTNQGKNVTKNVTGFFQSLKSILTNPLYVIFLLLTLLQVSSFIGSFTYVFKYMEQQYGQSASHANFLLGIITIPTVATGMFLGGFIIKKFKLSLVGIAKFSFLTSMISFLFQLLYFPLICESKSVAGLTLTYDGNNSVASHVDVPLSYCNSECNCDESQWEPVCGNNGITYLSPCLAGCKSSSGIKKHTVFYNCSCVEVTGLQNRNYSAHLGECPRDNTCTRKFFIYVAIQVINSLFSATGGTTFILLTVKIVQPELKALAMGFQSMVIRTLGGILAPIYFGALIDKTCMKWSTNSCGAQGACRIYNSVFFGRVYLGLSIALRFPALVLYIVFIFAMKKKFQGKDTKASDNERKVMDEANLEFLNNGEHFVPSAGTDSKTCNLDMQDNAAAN

OATP2B1 [1] = biological target: T2, OATP2B1 (Homo sapiens, UniProt O94956); conditions: for classification as OATP2B1 inhibitor/stimulator (single-point): 20 μM
T2 sequence (O94956 1-709): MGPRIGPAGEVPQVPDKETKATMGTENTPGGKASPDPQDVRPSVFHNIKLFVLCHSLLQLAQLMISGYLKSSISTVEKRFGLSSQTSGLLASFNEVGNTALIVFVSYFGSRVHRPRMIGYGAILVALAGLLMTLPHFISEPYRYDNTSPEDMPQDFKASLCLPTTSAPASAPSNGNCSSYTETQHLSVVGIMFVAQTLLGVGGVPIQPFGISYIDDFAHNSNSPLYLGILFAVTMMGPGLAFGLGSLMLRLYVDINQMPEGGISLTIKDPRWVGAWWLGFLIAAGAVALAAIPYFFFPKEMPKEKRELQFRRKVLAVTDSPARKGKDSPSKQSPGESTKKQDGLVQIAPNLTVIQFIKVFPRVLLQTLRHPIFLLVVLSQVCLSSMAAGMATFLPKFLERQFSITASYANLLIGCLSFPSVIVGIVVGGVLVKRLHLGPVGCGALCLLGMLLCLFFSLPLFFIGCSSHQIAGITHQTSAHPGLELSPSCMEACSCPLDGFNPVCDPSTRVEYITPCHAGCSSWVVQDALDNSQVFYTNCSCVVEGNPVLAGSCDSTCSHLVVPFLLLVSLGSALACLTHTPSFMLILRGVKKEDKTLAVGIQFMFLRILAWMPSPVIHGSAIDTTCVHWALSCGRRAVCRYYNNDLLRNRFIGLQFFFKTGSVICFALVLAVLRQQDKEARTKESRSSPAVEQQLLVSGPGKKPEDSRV

OATP1B1 = biological target: T3, OATP1B1 (Homo sapiens, UniProt Q9Y6L6)
T3 sequence (Q9Y6L6 1-691): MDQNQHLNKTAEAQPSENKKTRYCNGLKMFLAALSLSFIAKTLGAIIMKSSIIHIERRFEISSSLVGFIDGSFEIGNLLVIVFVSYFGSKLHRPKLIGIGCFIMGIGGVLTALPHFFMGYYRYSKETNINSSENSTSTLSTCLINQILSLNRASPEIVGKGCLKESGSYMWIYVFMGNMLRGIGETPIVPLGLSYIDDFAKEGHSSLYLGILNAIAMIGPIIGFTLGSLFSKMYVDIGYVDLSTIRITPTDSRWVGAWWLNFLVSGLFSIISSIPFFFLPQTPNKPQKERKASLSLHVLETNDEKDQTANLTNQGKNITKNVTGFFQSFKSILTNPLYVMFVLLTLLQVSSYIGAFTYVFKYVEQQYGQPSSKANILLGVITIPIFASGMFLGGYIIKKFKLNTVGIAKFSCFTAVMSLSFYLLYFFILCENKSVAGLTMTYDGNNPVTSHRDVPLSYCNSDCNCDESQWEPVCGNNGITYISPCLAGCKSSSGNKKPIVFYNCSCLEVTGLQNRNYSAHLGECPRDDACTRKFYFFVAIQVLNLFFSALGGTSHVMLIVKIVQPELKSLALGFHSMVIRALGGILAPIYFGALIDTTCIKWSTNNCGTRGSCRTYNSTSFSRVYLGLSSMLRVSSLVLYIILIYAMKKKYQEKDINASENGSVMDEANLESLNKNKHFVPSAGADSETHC

[2] = test system: OATP1B1, OATP1B3, and OATP2B1; assay: Classification of specific and general OATP inhibitors; conditions: 20 μM, inhibitor = at least 50% inhibition
BCRP = conditions: cited from earlier work
MDR1 = conditions: read-out: IC50 (MDR1); cited from earlier work
MRP2 = conditions: read-out: IC50 (MRP2); cited from earlier work
OATP2B1 [3] = biological target: T2, OATP2B1; assay: Transport kinetics of substrate uptake in OATP2B1-HEK293 cells; type: cell-based
[4] = OATP2B1 mediated uptake, HEK293

## N[C@@H]1C[C@H]1c1ccccc1 (racemic) [Tranylcypromine]
OATP1B3
  OATP1B3 Inhib %: -9.3%
OATP2B1 [1]
  OATP2B1 Inhib %: 15.5%
OATP1B1
  OATP1B1 Inhib %: -9.5%

## OCCN1CCN(CCC=C2c3ccccc3Sc3ccc(C(F)(F)F)cc32)CC1 [Flupenthixol]
OATP1B3; human
  OATP1B3 Inhib %: 13.5%
OATP2B1 [1]; human
  OATP2B1 Inhib %: 9.5%

## CCOc1ccc(-c2nc3cc(-c4nc5cc(N6CCN(C)CC6)ccc5[nH]4)ccc3[nH]2)cc1 [Hoechst 33342]
[2]
  OATP inhibitor classification based on single-point inhibition assays: OATP1B3, only three specific inhibitors

## COc1ccc2c3c([nH]c2c1)[C@H](CC(C)C)N1C(=O)[C@H](CCC(=O)OC(C)(C)C)NC(=O)[C@@H]1C3 [KO143]
BCRP
  concentration that completely inhibits BCRP: 1 µM

## CN(C)C(=O)CCSC(SCCC(=O)O)c1cccc(/C=C/c2ccc3ccc(Cl)cc3n2)c1 (stereo not drawn) [MK571]
BCRP; read-out: IC50 (BCRP)
  IC50: 50 µM
MDR1
  IC50: 26 µM
MRP2
  IC50: 10 µM

## CN(C)c1ccc(C=Cc2cc[n+](C)cc2)cc1 [N-methylpyridinium, ASP+]
OATP1B3
  OATP1B3 Inhib %: -2.3%
OATP2B1 [1]
  OATP2B1 Inhib %: 12.8%
OATP1B1
  OATP1B1 Inhib %: 27.9%

## O=C(O)C(=O)O.[NH-][C@@H]1CCCC[C@H]1[NH-].[Pt+2] [Oxaliplatin]
OATP1B3
  OATP1B3 Inhib %: 9.9%
OATP2B1 [1]
  OATP2B1 Inhib %: 8.2%
OATP1B1
  OATP1B1 Inhib %: 13.0%

## C[C@@H]1NC(=O)[C@H](C[C@@](C)(O)CO)NC(=O)[C@H]2NC(=O)[C@H](C)NC(=O)[C@@H]3C[C@H](O)CN3C(=O)[C@@H](CSc3[nH]c4ccccc4c32)NC(=O)[C@H]([C@@H](C)O)NC1=O [Phalloidin] (cyclo(AT[dC][cisHyp]A[X1][Leu(4R-OH,5-OH)]); thioether 3-6)
OATP1B3; human
  OATP1B3 Inhib %: 36.2%
OATP2B1 [1]; human
  OATP2B1 Inhib %: 24.1%

## COC(=O)N[C@H](C(=O)N[C@@H](Cc1ccccc1)[C@@H](O)CN(Cc1ccc(-c2ccccn2)cc1)NC(=O)[C@@H](NC(=O)OC)C(C)(C)C)C(C)(C)C [atazanavir, Atazanavir]
[2]
  OATP inhibitor classification based on single-point inhibition assays: general OATP inhibitors

## Clc1ccccc1C(c1ccccc1)(c1ccccc1)n1ccnc1 [clotrimazole, Clotrimazole]
OATP1B3
  classification as OATP1B3 inhibitor/stimulator (single-point): stimulator

## COc1cccc2c1C(=O)c1c(O)c3c(c(O)c1C2=O)C[C@@](O)(C(=O)CO)C[C@@H]3O[C@H]1C[C@H](N)[C@H](O)[C@H](C)O1 [doxorubicin, Doxorubicin]
[2]
  OATP inhibitor classification based on single-point inhibition assays: specific inhibitors of one of the OATP transporters

## C#Cc1cccc(Nc2ncnc3cc(OCCOC)c(OCCOC)cc23)c1 [erlotinib, Erlotinib]
[2]
  OATP inhibitor classification based on single-point inhibition assays: specific inhibitors of one of the OATP transporters

## C[C@]12CC[C@@H]3c4ccc(OS(=O)(=O)O)cc4CC[C@H]3[C@@H]1CCC2=O [estrone-3-sulfate]
OATP2B1 [3]; [4]
  Km: 38.2 ± 10.2 µM
  Vmax: 455.2 ± 55.36 pmol/mg protein/min
OATP2B1 [3]; n = 51 experiments
  mean uptake of model substrate in OATP2B1 expressing HEK293 cells compared to passive uptake in mock-transfected cells: 44 times

## CC(NCCC(c1ccccc1)c1ccccc1)c1ccccc1 (stereo not drawn) [fendiline, Fendiline]
OATP2B1 [1]
  classification as OATP2B1 inhibitor/stimulator (single-point): stimulate

## COc1ccc2c(c1)c(CC(=O)O)c(C)n2C(=O)c1ccc(Cl)cc1 [indometacin, Indomethacin]
[2]
  OATP inhibitor classification based on single-point inhibition assays: specific inhibitors of one of the OATP transporters

## CC[C@H](C)C(=O)O[C@H]1C[C@@H](C)C=C2C=C[C@H](C)[C@H](CC[C@@H](O)C[C@@H](O)CC(=O)O)[C@H]21 [lovastatin acid]
[2]
  OATP inhibitor classification based on single-point inhibition assays: specific OATP1B1 inhibitors

## O=C1c2c(O)ccc(O)c2C(=O)c2c(NCCNCCO)ccc(NCCNCCO)c21 [mitoxantrone, Mitoxantrone]
[2]
  OATP inhibitor classification based on single-point inhibition assays: OATP1B3, only three specific inhibitors

## CCc1nn(CCCN2CCN(c3cccc(Cl)c3)CC2)c(=O)n1CCOc1ccccc1 [nefazodone, Nefazodone]
OATP1B3
  classification as OATP1B3 inhibitor/stimulator (single-point): inhibitor
OATP2B1 [1]
  classification as OATP2B1 inhibitor/stimulator (single-point): inhibitor
OATP1B1; 20 μM
  classification as OATP1B1 inhibitor/stimulator (single-point): not interacting

## C[C@@H]1[C@H](O)[C@@H](C)/C=C/C=C/CC/C=C/C=C/C=C/C=C/C(O[C@H]2O[C@H](C)[C@@H](O)[C@H](N)[C@@H]2O)CC2O[C@](O)(CC(O)C(O)CCC(O)CC(O)CC(O)CC(=O)O[C@H]1C)CC(O)C2C(=O)O (stereo partly drawn) [nystatin, Nystatin]
OATP1B3
  OATP1B3 Inhib %: 74.9%
OATP2B1 [1]
  OATP2B1 Inhib %: 23.4%

## CC[C@H](C)C(=O)O[C@H]1C[C@H](O)C=C2C=C[C@H](C)[C@H](CC[C@@H](O)C[C@@H](O)CC(=O)O)[C@H]21 [pravastatin, Pravastatin]
[2]
  OATP inhibitor classification based on single-point inhibition assays: specific inhibitors of one of the OATP transporters
[2]; listed as pravastatin acid
  OATP inhibitor classification based on single-point inhibition assays: specific OATP1B1 inhibitors

## CC(=O)[C@H]1CC[C@H]2[C@@H]3CCC4=CC(=O)CC[C@]4(C)[C@H]3CC[C@]12C [progesterone, Progesterone]
OATP2B1 [1]
  classification as OATP2B1 inhibitor/stimulator (single-point): stimulate

## CCC(C)(C)C(=O)O[C@H]1C[C@@H](C)C=C2C=C[C@H](C)[C@H](CC[C@@H](O)C[C@@H](O)CC(=O)O)[C@H]21 [simvastatin acid]
[2]
  OATP inhibitor classification based on single-point inhibition assays: specific OATP1B1 inhibitors

## O=C(O)c1cc(/N=N/c2ccc(S(=O)(=O)Nc3ccccn3)cc2)ccc1O [sulfasalazine, Sulfasalazine]
[2]
  OATP inhibitor classification based on single-point inhibition assays: general OATP inhibitors

## C[C@]12CC[C@H]3[C@@H](CCC4=CC(=O)CC[C@@]43C)[C@@H]1CC[C@@H]2O [testosterone, Testosterone]
OATP2B1 [1]
  classification as OATP2B1 inhibitor/stimulator (single-point): stimulate

## CC[C@]1(O)C[C@H]2CN(CCc3c([nH]c4ccccc34)[C@@](C(=O)OC)(c3cc4c(cc3OC)N(C=O)[C@H]3[C@@](O)(C(=O)OC)[C@H](OC(C)=O)[C@]5(CC)C=CCN6CC[C@]43[C@@H]65)C2)C1 [vincristine, Vincristine]
[2]
  OATP inhibitor classification based on single-point inhibition assays: specific inhibitors of one of the OATP transporters; also recorded: OATP1B3, only three specific inhibitors
[2]; listed as Vincristine
  OATP inhibitor classification based on single-point inhibition assays: specific inhibitor of OATP1B3

## Olmesartan
OATP2B1 [1]
  OATP2B1 Inhib %: -7.9%

## cholecystokinin octapeptide [cholecystokinin octapeptide (CCK-8)]
OATP1B3
  OATP1B3 Inhib %: 96.9%
OATP2B1 [1]
  OATP2B1 Inhib %: 60.1%
